These results are taken from paper PMC9739815, “Akt/mTOR Targeting Activity of Resveratrol Derivatives in Non-Small Lung Cancer” (Molecules, 2022).

Series [1] deals with H460 cells. Kind of series: MTT cell viability assay, H460 cells. Format: cell-based. Conditions: Homo sapiens, NCI-H460, 24 h, 0–200 µM, read-out: IC50 ± SEM of NSCLC cells, H460. The procedure:
(§1) NSCLC cells were cultured overnight and treated with various concentrations (0–200 µM) of resveratrol derivatives (RD1-RD5) and resveratrol for 24 h, and then cell viability was analyzed by the 3-(4, 5-dimethylthiazolyl-2)-2, 5-diphenyltetrazolium bromide (MTT) assay to evaluate the percentage of cell viability. All of the data were calculated on the basis of the results of three replicated samples. […] The difference of the structure at C-4 was that the hydroxyl group of RD2 was modified to the methoxy group of RD3 and at C-3, the methoxy group of RD2 was changed to the hydroxyl group of RD3. […] Furthermore, resveratrol decreased cell viability in NSCLC cells (A549, H23, and H460) with the IC50 at more than 200 µM which was the same RD3 (Figure 2a–d). This different action on cancer cells as a result of chemical structure modification has provided an insight for the structure–activity relationship that may facilitate the further development of the potent compound from the lead structure of resveratrol derivatives. Cell viability was investigated by MTT colorimetric assay. All cell lines were cultured at the density of 1 × 10^4 cells per well in a 96-well tissue culture plate and incubated in an incubator. After that, cells were treated with various concentrations of RD1-RD5 for 24 h at 37 °C and analyzed by the MTT assay according to the manufacturer’s protocol (Sigma Chemical, St. Louis, MO, USA). In calculating the cell viability by a microplate reader (Anthros, Durham, NC, USA), the measured absorbance of treated cells were divided by the value of untreated cells and are reported as a percentage.
On the technique in general: Tetrazolium dyes change colour on reduction, which living cells bring about.

In series [2] the test system is H23 cells. Kind of series: MTT cell viability assay, H23 cells. The series is classed as cell-based. Conditions: Homo sapiens, NCI-H23, 24 h, 0–200 µM, read-out: IC50 ± SEM of NSCLC cells, H23. The procedure:
as §1

Series [3] concerns A549 cells. Kind of series: MTT cell viability assay, A549 cells. The settings on record: Homo sapiens, 24 h, 0–200 µM, read-out: IC50 ± SEM of NSCLC cells, A549. The series is classed as cell-based. The procedure: as §1
Series [4] concerns p-Akt/Akt in A549 cells. Kind of series: Western blot of p-Akt/Akt, A549 cells. Format: cell-based, human. The settings on record: A549 cells, 100 μM, 12 h, vs untreated control. Here is the method:
(§2) NSCLC cells (A549 and H23) were treated with RD2 and RD3 (10–100 μM) for 12 h. After which, all cells were collected and the expression levels of Akt, p-Akt, mTOR, and p-mTOR were investigated by Western blot analysis (Figure 5a, Figure 6a, Figure 7a and Figure 8a). […] Immunofluorescence staining of Akt, p-Akt, mTOR, and p-mTOR was performed in RD2 and RD3 treated cells. The results further confirm the effect of RD2 and RD3 on the Akt/mTOR pathway.
(§3) Western blotting was used to detect the presence of specific protein. Cells were seed at a density of 4 × 10^5 cells/well in 6 well plates overnight. Cells were treated with various concentrations RD1-RD5 were treated for 12 h. After treatment, the apoptosis cells were collected by centrifuging media with 1500 rpm for 5 min and aspirating supernatants. Then, cells were washed with cold 1× PBS and incubated with 1X RIPPA 40 µL containing 10× RIPA buffer 100 µL, protease inhibitors (PI) 100 µL, PMSF 10 µL, and Triton × 10 µL for 30 min on ice. BCA protein assay kit from Pierce Biotechnology (Rockford, IL, USA) analyzed protein concentrations. The extracted proteins were separated by 7.5–10% sodium dodecyl sulfate polyacrylamide gel electrophoresis (SDS-PAGE) and transferred to polyvinylidene difluoride membrane (PVDF). Then, the membranes were blocked with 5% non-fat milk powder for 2 h. After that, they were incubated with primary antibody at 4 °C Akt (#9272), phosphorylated Akt (#4060), mTOR (#2983S), and p-mTOR (#5536S) overnight. The membranes were washed with Tris-buffered saline/Tween 20 3 times and incubated with secondary antibodies for 2 h. Finally, the protein bands were detected using chemiluminescence substrate and exposed by Chemiluminescent ImageQuant LAS4000. Protein bands were analyzed using Image J software.

Series [5] has as its system p-mTOR/mTOR in A549 cells. Kind of series: Western blot of p-mTOR/mTOR, A549 cells. Conditions: 100 μM, 12 h, vs untreated control. Format: cell-based, human. The procedure:
as §2, §3

The test system of series [6] is p-mTOR/mTOR in H23 cells. Kind of series: Western blot of p-mTOR/mTOR, H23 cells. The series is classed as cell-based, human. The settings on record: 100 μM, 12 h, vs untreated control. Here is the method:
as §2, §3
A general note: A western blot detects proteins with antibodies after separation by electrophoresis.

Series [7] has as its system DP cells. Kind of series: MTT cell viability assay, normal dermal papilla (DP) cells. Format: cell-based. The settings on record: 24 h. The procedure: To confirm the selective cytotoxicity of resveratrol derivatives (RD2 and RD3) in cancer cells, resveratrol derivatives (RD2 and RD3) and resveratrol were determined for the cytotoxic profile in normal human cells, dermal papilla (DP).
Cell viability was investigated by MTT colorimetric assay. All cell lines were cultured at the density of 1 × 10^4 cells per well in a 96-well tissue culture plate and incubated in an incubator. After that, cells were treated with various concentrations of RD1-RD5 for 24 h at 37 °C and analyzed by the MTT assay according to the manufacturer’s protocol (Sigma Chemical, St. Louis, MO, USA). In calculating the cell viability by a microplate reader (Anthros, Durham, NC, USA), the measured absorbance of treated cells were divided by the value of untreated cells and are reported as a percentage.

In series [8] the test system is p-Akt/Akt in H23 cells. Kind of series: Western blot of p-Akt/Akt, H23 cells. The settings on record: 100 μM, 12 h, vs untreated control. The series is classed as cell-based, human. Here is the method:
as §2, §3

What is called IC50 is the point on the concentration scale where inhibition reaches its midpoint. With `COc1cc(CCc2cc(C)c(OC)c(O)c2)cc(OC)c1O` [RD1, 5-(4-hydroxy-3,5-dimethoxyphenethyl)-2-methoxy-3-methylphenol], the figures for the IC50 in series [1], in series [2] and in series [3] were greater than 200 µM, 129 ± 8.91 µM and 164 ± 26.2 µM, respectively.

Consider `COc1ccc(CCc2cc(OC)c(O)c(OC)c2)cc1O` [RD4, 4-(3-hydroxy-4-methoxyphenethyl)-2,6-dimethoxyphenol], for which the IC50 in series [1] amounted to 122 ± 28.6 µM; in series [2], 109 ± 17.3 µM; in series [3] it was 113 ± 25.5 µM.

On to `COc1cc(CCc2cc(OC)c(O)c(OC)c2)cc(OC)c1O` [RD5, 4,4′-(ethane-1,2-diyl)bis(2,6-dimethoxyphenol)], for which the IC50 in series [1] came to 153 ± 59.6 µM; in series [2], 82.6 ± 13.1 µM; in series [3] it was 185 ± 58.7 µM.

As to `Oc1ccc(C=Cc2cc(O)cc(O)c2)cc1` [Resveratrol, 3,5,4′-trihydroxystilbene], the IC50 in series [1] was greater than 200 µM; in series [2] it was greater than 200 µM; in series [7] (Human dermal papilla cell, 0–200 µM, read-out: IC50 ± SEM of DP cells) it was greater than 200 µM; in series [3], greater than 200 µM. Also, the “p-Akt/Akt protein expression levels” value in series [4] and in series [8] was “significant decrease” each time. Also, the “p-mTOR/mTOR protein expression levels” value in series [5] and in series [6] was “significant decrease” in each case. The “effect on cell viability percentages in DP cells” value in series [7] (normal human dermal papilla cells) is on record as “did not significantly affect”.
